Data: article PMC6567565, “Modulation of neurological pathways by Salvia officinalis and its dependence on manufacturing process and plant parts used” (BMC Complementary and Alternative Medicine, 2019)
Counter-ions that a name gives are not always drawn.

Key:
[1] = biological target: human serotonin 5-HT2C(e) receptors; test: serotonin 5-HT2C(e) receptor binding assay ([3H]-mesulergine); conditions: reference compound
Description: (§1) The serotonin 5-HT2C(e) receptor binding assay was performed according to the data sheet provided by the supplier of the receptor preparation, with modifications. The receptor preparation was incubated for 120 min at 37 °C in 50 mM Tris-HCl (pH 7.4), 0.1% ascorbic acid and 10 μM pargyline with 0.5 nM [N^6-methyl-^3H]-mesulergine in the dark.
All assays were terminated by transfer of the samples onto filter plates (PerkinElmer or Whatman), presoaked in assaybuffer (GABAA, GABAB, alpha2A and muscarinic M3), treated with 0.5% BSA (μ-opioid), presoaked with 0.5% polyethyleneimine (5-HT2B, 5-HT2C(e)), or presoaked with 0.1% polyethyleneimine (5-HT1A, 5-HTT). Filters were washed four times with 200 μl of ice-cold 50 mM Tris-HCl pH 7.4 (GABAA, GABAB, Alpha2A, 5-HT1A, 5-HT2B 5-HT2C(e), μ-opioid, and muscarinic M3) or 50 mM Tris-HCl pH 7.4/0.5 M NaCl (5-HTT), and filter-bound radioactivity was determined by a microplate reader (Microbeta, Wallac, Finnland). […]
The IC50 value (concentration causing half-maximal inhibition of specific binding) was determined by non-linear regression analysis of the competition curves using the “sigmoidal dose-response” algorithm (GraphPad Prism, San Diego, USA). […]

[2] = biological target: serotonin 5-HT2C receptor; test: [3H]-mesulergine binding in native female hypothalami preparation; set-up: species or system human; conditions: reference compound
Description: Human frozen hypothalami were from a healthy person and a healthy person (Tissue Solutions Ltd., Glasgow, UK). The tissue was minced in 20 ml 10 mM HEPES pH 7.4, 1 mM EDTA on ice with a disperger (20 s at 28 Trpm) and centrifuged for 15 min at 31,600×g at 4 °C. The pellet was homogenized (10 strokes with a glass-teflon homogenizer, 2000 rounds per minute) at 4 °C and again centrifuged. The latter procedure was repeated once and the pellet finally resupended in 50 mM HEPES pH 7.4, 4 mM MgCl2, and 1 mM EDTA; frozen in liquid nitrogen; and stored at − 80 °C until usage.
as §1
In membranes from human native female hypothalami, no specific binding of the radioligand for the 5-HT1A, [^3H]-8-OH-DPAT, could be observed, indicating the absence of the serotonin 5-HT1A receptor at least in the investigated preparation.

[3] = biological target: benzodiazepine site of the GABAA receptor; test: GABAA-benzodiazepine site binding assay ([3H]-Ro-15-1788); conditions: reference compound
Description: The GABAA-benzodiazepine site binding assay was performed as described by Mehta and Shank [28], with minor modifications. Membranes were incubated for 30 min at 22 °C in 50 mM Tris-HCl (pH 7.4) and 100 mM NaCl with 1 nM [^3H]-Ro-15-1788. Non-specific binding was determined with 10 μM diazepam.
From every data point non-specific binding was subtracted and data normalized (100% specific binding represents the specific binding of the radioligand to the binding site of the receptor in the absence of any effector).

[4] = biological target: human serotonin transporters; set-up: method as in ref 33 (Tatsumi et al.); conditions: [3H]-imipramine binding; ref 33 (Tatsumi et al.); cited from earlier work
AChE = tested on: AChE; set-up: method as in ref 31 (Kishibayashi et al.); conditions: ref 31 (Kishibayashi et al.); cited from earlier work

## O=C1Nc2cc(Cl)c(Cl)cc2N2CCNCC12 (centres unmarked) [WAY 161503, WAY 161503 hydrochloride]
[1]
  IC50: 163 nM
[2]
  IC50: 347 nM

## CN1C(=O)CN=C(c2ccccc2)c2cc(Cl)ccc21 [diazepam]
[3]
  IC50: 39 nM

## CN(C)CCCN1c2ccccc2CCc2ccccc21 [imipramine, Imipramine hydrochloride]
[4]
  Kd: 1.4 nM

## CN(C)C(=O)Oc1cccc([N+](C)(C)C)c1 [neostigmine]
AChE
  IC50: 36 nM
